Measurements reported in patent US8394969B2, “Cyclic benzimidazole derivatives useful as anti-diabetic agents” (Merck Sharp & Dohme Corp., priority 2008, dated 2013).
Counter-ions that a name gives are not always drawn. Like-named read-outs stand apart in the source and are kept apart here.

Target: recombinant human AMPK complex 1 (containing α1β1γ1) (Homo sapiens, UniProt Q13131+Q9Y478)
Test: […] (in vitro AMPK activation assay)
Assay type: biochemical
Details: for Emax: basal activity subtracted
[1] = recombinant human AMPK complex 1 (α1β1γ1), read-out: % Maximum AMP Activation of human AMPK Complex 1

recombinant human AMPK complex 1 (containing α1β1γ1), sequence (Q13131 whole entry): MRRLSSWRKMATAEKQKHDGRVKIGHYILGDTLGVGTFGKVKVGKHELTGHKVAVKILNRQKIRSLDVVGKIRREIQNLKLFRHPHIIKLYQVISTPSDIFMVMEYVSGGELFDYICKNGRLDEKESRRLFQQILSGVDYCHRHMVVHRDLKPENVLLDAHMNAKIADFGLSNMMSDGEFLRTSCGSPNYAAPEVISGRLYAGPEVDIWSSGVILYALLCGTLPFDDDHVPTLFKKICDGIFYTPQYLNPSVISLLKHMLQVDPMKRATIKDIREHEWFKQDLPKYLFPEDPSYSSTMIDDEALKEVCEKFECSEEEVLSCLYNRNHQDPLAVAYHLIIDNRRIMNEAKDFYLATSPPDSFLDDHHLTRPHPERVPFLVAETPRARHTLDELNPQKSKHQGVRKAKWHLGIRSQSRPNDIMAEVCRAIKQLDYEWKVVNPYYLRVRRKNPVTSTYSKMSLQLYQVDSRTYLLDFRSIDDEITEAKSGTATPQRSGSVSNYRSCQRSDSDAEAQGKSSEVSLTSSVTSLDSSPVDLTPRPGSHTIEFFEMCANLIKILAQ
recombinant human AMPK complex 1 (containing α1β1γ1), sequence (Q9Y478 whole entry): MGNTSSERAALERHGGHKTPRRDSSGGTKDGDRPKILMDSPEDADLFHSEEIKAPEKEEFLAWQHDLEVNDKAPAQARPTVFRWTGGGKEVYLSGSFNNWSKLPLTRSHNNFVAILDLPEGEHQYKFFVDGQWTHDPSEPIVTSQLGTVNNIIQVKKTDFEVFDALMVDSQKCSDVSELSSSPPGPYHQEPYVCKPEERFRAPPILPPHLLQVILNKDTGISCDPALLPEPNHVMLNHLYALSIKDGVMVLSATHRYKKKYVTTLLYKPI
recombinant human AMPK complex 1 (containing α1β1γ1), sequence (P54619 whole entry partner): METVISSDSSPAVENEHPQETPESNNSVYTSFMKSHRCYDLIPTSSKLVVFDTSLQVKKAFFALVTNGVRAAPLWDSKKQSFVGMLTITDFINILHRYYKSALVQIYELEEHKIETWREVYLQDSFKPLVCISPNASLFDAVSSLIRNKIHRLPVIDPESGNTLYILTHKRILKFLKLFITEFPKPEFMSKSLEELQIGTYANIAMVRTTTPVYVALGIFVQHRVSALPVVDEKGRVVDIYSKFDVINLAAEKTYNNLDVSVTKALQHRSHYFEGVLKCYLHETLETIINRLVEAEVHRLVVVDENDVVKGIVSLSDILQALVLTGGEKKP

| Compound | Emax [1] [%] | also measured |
| --- | --- | --- |
| O=C(O)c1ccnc(Oc2nc3cc(-c4ccc(-c5ccccc5)cc4)c(Cl)cc3[nH]2)c1 [Example 215, 2-(5-Biphenyl-4-yl-6-chloro-1H-benzoimidazol-2-yloxy)-isonicotinic acid] | > 80 | – |
| Cc1ccc(Oc2nc3cc(-c4ccc(N(C)C)c(C(F)(F)F)c4)c(Cl)cc3[nH]2)cc1C(=O)O [Example 295, 2-(3-carboxy-4-methylphenoxy)-6-chloro-5-[4-(dimethylamino)-3-(trifluoromethyl)phenyl]-1H-3,1-benzimidazol-3-ium chloride] | > 80 | – |
| COC(=O)c1cc(Oc2nc3cc(C#Cc4cccc(C)c4)c(Cl)cc3[nH]2)ccc1C [Example 100, 5-(6-Chloro-5-m-tolylethynyl-1H-benzoimidazol-2-yloxy)-2-methyl-benzoic acid methyl ester] | > 80 | – |
| COc1cccc(-c2cc3nc(Oc4ccc(C)c(C(=O)O)c4)[nH]c3cc2Cl)c1 [Example 338, Ammonium 5-{[6-chloro-5-(3-methoxyphenyl)-1H-benzimidazol-2-yl]oxy}-2-methylbenzoate] | – | Emax (read-out: % Maximum AMP Activation of human AMPK Complex 1, recombinant human AMPK complex 1 (α1β1γ1)): > 80% |
| COC(=O)c1cc(Oc2nc3cc(-c4ccc(-c5ccccc5)cc4)c(Cl)cc3[nH]2)cc(C)c1C [Example 14, 5-(5-Biphenyl-4-yl-6-chloro-1H-benzoimidazol-2-yloxy)-2,3-dimethyl-benzoic acid methyl ester] | > 80 | – |
| Cc1ccc(Oc2nc3cc(-c4ccc5c(c4)c(CN(C)C)cn5C)c(Cl)cc3[nH]2)cc1C(=O)O [Example 353, 5-[6-Chloro-5-(3-dimethylaminomethyl-1-methyl-1H-indol-5-yl)-1H-benzoimidazol-2-yloxy]-2-methyl-benzoic acid] | > 80 | – |
| COC(=O)C1(c2ccc(Oc3nc4cc(-c5ccc(-c6ccccc6)cc5)c(Cl)cc4[nH]3)cc2)CC1 [Example 6, 1-[4-(5-Biphenyl-4-yl-6-chloro-1H-benzoimidazol-2-yloxy)-phenyl]-cyclopropanecarboxylic acid methyl ester] | > 80 | – |
| Cc1ccc(Oc2nc3cc(-c4cccc5ncccc45)c(Cl)cc3[nH]2)cc1C(=O)O [Example 333, 2-(3-carboxy-4-methylphenoxy)-6-chloro-5-quinolin-5-yl-1H-3,1-benzimidazol-3-ium formate] | > 80 | – |
| Cc1ccc(Oc2nc3cc(-c4ccc(-c5ccccc5)cc4)c(Cl)cc3[nH]2)cc1C(=O)O [Example 1, 5-[(5-biphenyl-4-yl-6-chloro-1H-benzimidazol-2-yl)oxy]-2-methylbenzoic acid] | – | EC50: 8 nM |
| Cc1cc(Oc2nc3cc(-c4ccc(-c5ccccc5)cc4)c(Cl)cc3[nH]2)c(C)c(C(=O)O)c1 [Example 213, 3-(5-Biphenyl-4-yl-6-chloro-1H-benzoimidazol-2-yloxy)-2,5-dimethyl-benzoic acid] | > 80 | – |
| COC(=O)c1ccc(Oc2nc3cc(-c4ccc(-c5ccccc5)cc4)c(Cl)cc3[nH]2)cc1C(=O)OC [Example 10, 4-(5-Biphenyl-4-yl-6-chloro-1H-benzoimidazol-2-yloxy)-phthalic acid dimethyl ester] | > 80 | – |
| Cc1ccc(Oc2nc3cc(-c4nc5ccccc5s4)c(Cl)cc3[nH]2)cc1C(=O)O [Example 354, 5-(5-Benzothiazol-2-yl-6-chloro-1H-benzoimidazol-2-yloxy)-2-methyl-benzoic acid] | > 80 | – |
| CC(=O)c1ccc(-c2cc3nc(Oc4ccc(C)c(C(=O)O)c4)[nH]c3cc2Cl)cc1 [Example 157, 5-{5-(4-Acetyl-phenyl)-6-chloro-1H-benzoimidazol-2-yloxy]-2-methyl-benzoic acid] | > 80 | – |
| Cc1ccc(Oc2nc3cc(-c4ccc(-c5ccc(=O)n(C)c5)cc4)c(Cl)cc3[nH]2)cc1C(=O)O [Example 68, 5-({6-chloro-5-[4-(1-methyl-6-oxo-1,6-dihydropyridin-3-yl)phenyl]-1H-benzimidazol-2-yl}oxy)-2-methylbenzoic acid] | – | EC50 (recombinant human AMPK complex 1 (α1β1γ1), read-out: EC50): 7 nM |
| Cc1ccc(Oc2nc3cc(-c4cc5ccccc5o4)c(Cl)cc3[nH]2)cc1C(=O)O [Example 356, 5-(5-Benzofuran-2-yl-6-chloro-1H-benzoimidazol-2-yloxy)-2-methyl-benzoic acid] | > 80 | – |
| NC(=O)c1ccc(Oc2nc3cc(-c4ccc(-c5ccccc5)cc4)c(Cl)cc3[nH]2)cc1 [Example 30, 4-(5-Biphenyl-4-yl-6-chloro-1H-benzoimidazol-2-yloxy)-benzamide] | > 80 | – |
| Cc1ccc(Oc2nc3cc(-c4ccc5nncn5c4)c(Cl)cc3[nH]2)cc1C(=O)O [Example 152, 5-(6-Chloro-5-[1,2,4]triazolo[4,3-a]pyridin-6-yl-1H-benzoimidazol-2-yloxy)-2-methyl-benzoic acid] | > 80 | – |
| Cc1ccc(Oc2nc3cc(-c4ccc(C5CC5)c(N(C)C)c4)c(Cl)cc3[nH]2)cc1C(=O)O [Example 267, 5-[6-Chloro-5-(4-cyclopropyl-3-dimethylamino-phenyl)-1H-benzoimidazol-2-yloxy]-2-methyl-benzoic acid] | > 80 | – |
| Cc1ccc(Oc2nc3cc(-c4ccc(-c5nnn[nH]5)cc4)c(Cl)cc3[nH]2)cc1C(=O)O [Example 176, 5-{6-Chloro-5-[4-(1H-tetrazol-5-yl)-phenyl]-1H-benzoimidazol-2-yloxy}-2-methyl-benzoic acid] | > 80 | – |
| Cc1ccc(Oc2nc3cc(C#Cc4ccc(-c5cccnc5)cc4)c(Cl)cc3[nH]2)cc1C(=O)O [Example 70, 5-[6-Chloro-5-(4-pyridin-3-yl-phenylethynyl)-1H-benzoimidazol-2-yloxy]-2-methyl-benzoic acid] | > 80 | – |
| Cc1ccc(Oc2nc3cc(C#Cc4ccc(C(F)(F)F)cc4)c(Cl)cc3[nH]2)cc1C(=O)O [Example 93, 5-[6-Chloro-5-(4-trifluoromethyl-phenylethynyl)-1H-benzoimidazol-2-yloxy]-2-methyl benzoic acid] | > 80 | – |
| Cc1ccc(Oc2nc3cc(-c4ccc(-c5ccccc5N)cc4)c(Cl)cc3[nH]2)cc1C(=O)O [Example 205, 5-{[5-(2′-aminobiphenyl-4-yl)-6-chloro-1H-benzimidazol-2-yl]oxy}-2-methylbenzoic acid] | > 80 | – |
| Cc1ccc(Oc2nc3cc(C#Cc4ccc(C#N)cc4)c(Cl)cc3[nH]2)cc1C(=O)O [Example 92, 5-[6-Chloro-5-(4-cyano-phenylethynyl)-1H-benzoimidazol-2-yloxy]-2-methyl-benzoic acid] | > 80 | – |
| Cc1ccc(Oc2nc3cc(-c4ccc(-c5ccccc5Cl)cc4)c(Cl)cc3[nH]2)cc1C(=O)O [Example 191, 5-{[6-chloro-5-(2′-chlorobiphenyl-4-yl)-1H-benzimidazol-2-yl]oxy}-2-methylbenzoic acid] | > 80 | – |
| O=C(O)c1ccc(Oc2nc3cc(-c4ccc(-c5ccccc5)cc4)c(Cl)cc3[nH]2)cc1C(=O)O [Example 36, 4-(5-Biphenyl-4-yl-6-chloro-1H-benzoimidazol-2-yloxy)-phthalic acid] | > 80 | – |
| Cc1ccc(Oc2nc3cc(-c4ccc(-c5ccccc5)cc4)c(Cl)cc3n2CC(=O)O)cc1C(=O)O [Example 224, 5-(5-Biphenyl-1-yl-1-carboxymethyl-6-chloro-1H-benzoimidazol-2-yloxy)-2-methyl-benzoic acid] | > 80 | – |
| Cc1ccc(Oc2nc3cc(-c4ccc5[nH]cc(C)c5c4)c(Cl)cc3[nH]2)cc1C(=O)O [Example 287, 5-[6-Chloro-5-(3-methyl-1H-indol-5-yl)-1H-benzoimidazol-2-yloxy]-2-methyl-benzoic acid] | > 80 | – |
